{"source": "paper PMC12512182", "about": "“Unveiling the Structural and Biochemical Characteristics of an Acidophilic β‑Mannanase from Soybean (Glycine max)” (Journal of Agricultural and Food Chemistry, 2025)", "molecular_target": "T1, GmMAN19-1 (Glycine max, UniProt I1NBK5, Q294W)", "T1 construct": "gene LOC100787923; mature form, signal peptide 1-27 removed; pGEX-4T-1 (EcoRI/XhoI) N-terminal GST fusion from E. coli BL21(DE3), GST cut with thrombin leaving N-terminal Gly-Ser; ~40 kDa; 371 residues in the crystal structure", "T1 sequence (I1NBK5 28-410 Q294W)": "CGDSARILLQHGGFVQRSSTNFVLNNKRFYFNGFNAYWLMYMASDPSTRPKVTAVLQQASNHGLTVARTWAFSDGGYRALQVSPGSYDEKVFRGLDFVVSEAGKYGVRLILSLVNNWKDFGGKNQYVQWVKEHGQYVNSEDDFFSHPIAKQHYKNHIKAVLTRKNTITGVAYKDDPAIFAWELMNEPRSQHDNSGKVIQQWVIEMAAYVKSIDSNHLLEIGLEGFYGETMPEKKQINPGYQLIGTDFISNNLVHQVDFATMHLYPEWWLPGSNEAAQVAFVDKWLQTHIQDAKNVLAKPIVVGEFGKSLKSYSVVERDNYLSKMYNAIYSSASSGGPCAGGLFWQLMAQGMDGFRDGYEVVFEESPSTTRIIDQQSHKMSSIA", "assay": "TLC product profile of M5 conversion", "format": "biochemical", "conditions": "1 μM enzyme, 25 mM M5, pH 4.6, 40 °C (optimal assay conditions); hydrolysis and transglycosylation"}
{"smiles": "OC[C@H]1O[C@@H](O[C@H]2[C@H](O)[C@H](O)[C@H](O[C@H]3[C@H](O)[C@H](O)[C@H](O[C@H]4[C@H](O)[C@H](O)[C@H](O[C@H]5[C@H](O)[C@H](O)C(O)O[C@@H]5CO)O[C@@H]4CO)O[C@@H]3CO)O[C@@H]2CO)[C@@H](O)[C@@H](O)[C@@H]1O", "note": "(stereo partly shown) [M5, mannopentaose]", "values": [{"measurement": "TLC product profile of M5 conversion", "value": "the Q267W mutant displayed an altered transglycosylation profile, generating shorter-chain oligosaccharides"}]}
